Data published in the NIST ThermoML archive (doi:10.1016/j.tca.2006.01.020).

Experiment: molar heat capacity at constant pressure
Conditions: 101.33 kPa, Crystal, Small (less than 1 g) adiabatic calorimetry

[Ba+2].[Ce+4].[O-2].[O-2].[O-2] [barium cerium(IV) oxide]
Conditions | molar heat capacity at constant pressure [J/K/mol]
11.89 K | 0.651
12.09 K | 0.7
12.29 K | 0.744
12.5 K | 0.806
12.72 K | 0.859
12.93 K | 0.919
13.15 K | 0.983
13.37 K | 1.05
13.59 K | 1.12
13.82 K | 1.2
14.05 K | 1.28
14.28 K | 1.36
14.51 K | 1.45
14.74 K | 1.54
14.97 K | 1.63
15.21 K | 1.73
15.44 K | 1.83
15.68 K | 1.93
15.91 K | 2.05
16.15 K | 2.16
16.38 K | 2.26
16.6 K | 2.38
16.84 K | 2.51
17.09 K | 2.62
17.32 K | 2.75
17.55 K | 2.89
17.79 K | 3.02
18.03 K | 3.16
18.27 K | 3.3
18.52 K | 3.44
18.76 K | 3.58
19 K | 3.73
19.23 K | 3.89
19.47 K | 4.05
19.73 K | 4.19
19.98 K | 4.35
20 K | 4.411
20.2 K | 4.52
20.44 K | 4.68
20.69 K | 4.84
20.94 K | 5
21.17 K | 5.2
21.41 K | 5.36
21.66 K | 5.54
21.91 K | 5.7
22.16 K | 5.88
22.39 K | 6.07
22.63 K | 6.26
22.88 K | 6.44
23.14 K | 6.62
23.38 K | 6.81
23.62 K | 7
23.86 K | 7.2
24.1 K | 7.39
24.36 K | 7.58
24.61 K | 7.76
24.86 K | 7.96
25.1 K | 8.19
25.34 K | 8.4
25.6 K | 8.57
25.86 K | 8.77
26.1 K | 8.98
26.34 K | 9.19
26.57 K | 9.41
26.83 K | 9.6
27.09 K | 9.8
27.35 K | 9.96
27.6 K | 10.2
27.83 K | 10.4
28.07 K | 10.7
28.33 K | 10.8
28.59 K | 10.7
28.92 K | 11.3
29.29 K | 11.6
29.83 K | 12.1
30 K | 12.33
30.39 K | 12.6
30.99 K | 13.1
31.6 K | 13.6
32.23 K | 14.1
32.89 K | 14.7
33.56 K | 15.3
34.26 K | 15.9
34.97 K | 16.5
35.7 K | 17.1
36.44 K | 17.8
37.19 K | 18.4
37.95 K | 19.1
38.72 K | 19.8
39.5 K | 20.4
40 K | 21.08
40.3 K | 21.1
41.1 K | 21.8
41.92 K | 22.5
42.76 K | 23.2
43.61 K | 24
44.48 K | 24.7
